Assay results from patent US20230221325A1, “SOLUBLE CD28 LEVELS AFTER IMMUNOTHERAPY” (BIOND BIOLOGICS LTD., priority 2019, published 2023).

Experiments:
[1] = tested on: CMV-stimulated PBMC; experiment: CMV activation of PBMCs for the generation of soluble CD28 (ELISA); type: cell-based, human; settings: 7 days CMV stimulation, with anti-PD-1 (Keytruda) 5 μg/mL, inhibitor 1 μM
[2] = tested on: SEB stimulated human PBMC; experiment: SEB activation of PBMCs for the generation of soluble CD28 (ELISA); type: cell-based
[3] = tested on: melanoma patients; experiment: Survival of melanoma patients on anti-PD1 therapy by sCD28 level before therapy; type: in vivo, human
Method: To further understand the impact of sCD28 levels on cancer progression during immunotherapy, more than 100 serum samples from melanoma patients prior to initiation of anti-PD1 therapy (Nivolumab, NCT01176461) were tested for sCD28 levels by ELISA. Survival was monitored throughout therapy and a survival function was plotted comparing subjects with high and low levels of sCD28 before therapy (FIG. 1).

CNC(=O)[C@@H](NC(=O)[C@H](CCCc1ccccc1)[C@H](C)N(O)C=O)C(C)(C)C [GI254023X]
sCD28 increase caused by anti-PD-1 [1]: abrogated the sCD28 increase caused by immunotherapy

Keytruda: Anti-PD-1 (Keytruda, Merck)
sCD28 in the media (increase induced by SEB) ([2]; PBMCs from two healthy donors, SEB for 8 days, anti-PD-1 5 μg/mL vs isotype control): enhanced | sCD28 increase caused by the immunotherapy, significance ([2]; days 6-8, vs isotype control): statistically significant

Nivolumab: anti-PD1 therapy (NCT01176461)
median survival ([3]; subjects with high levels of sCD28 before therapy): 514 days | median survival ([3]; subjects with low levels of sCD28 (below 2 ng/mL) before therapy): 659 days
